{"source": "patent US10772876B2", "about": "“Enhancers of Notch signaling and the use thereof in the treatment of cancers and malignancies medicable by upregulation of Notch” (XENIOPRO GmbH, priority 2016, dated 2020)", "key": {"CD4 T cells": {"tested_on": "CD4 T cells", "test": "IFN-γ production and secretion of CD4 T cells under Th1 polarizing conditions", "assay_type": "cell-based, mice", "settings": "10 μM, 96 hours, intracellular IFN-γ and Elisa of culture supernatants", "procedure": "FIGS. 5A-5C The Notch signaling enhancing compound V126 induces increased IFNy production and secretion in vitro. CD4 T cells isolated from naive CS7B/6 mice were cultured on plate bound α-CD3/α-CD28 (both 0.25μg/m1) under Th1 polarizing conditions (rlL-12, (5ng/ml) and anti-IL-4 (clone:11B11; […])) in the presence of DMSO, DAPT as y-secretase inhibitor and V126 at 10 μM. 96 hours after initiation of the culture, intracellular IFN-y levels a) and CD25 surface expression b) were assessed on PMA/lonomycin stimulated CD4 T cells. c) IFN-y cytokine levels were assessed in culture supernatants by Elisa under the same conditions as in a) and b)."}, "[1]": {"tested_on": "Notch1 full-length receptor", "test": "Notch1 full-length receptor driven luciferase reporter assay (HeLa co-culture with DLL4 ligand expressing HeLa cells)", "assay_type": "cell-based", "settings": "for Notch signaling relative to the DMSO control: control treatments, FIG. 1", "procedure": "As used herein, the term “enhancing Notch signaling” refers to an effect on a cellular Notch-driven luciferase reporter assay, by which the Notch signaling enhancing properties of the compounds of the invention are determined. The Notch-driven luciferase reporter assay consists of HeLa cells engineered to express the Notch1 full length receptor, and to harbor a CSL-driven firefly luciferase expression construct as well as a Notch independent Renilla luciferase construct for the purpose of normalisation. These cells are co-cultured with engineered HeLa cells expressing the Notch ligand D114 to induce Notch signaling, thus to induce the expression of the firefly luciferase enzyme. The intensity of a luciferase-driven reporter signal is considered as a measure for Notch signaling.\nA compound is considered as having an effect of enhancing Notch signaling if said compound results relative to DMSO in ≥1.5-fold increase, preferably in ≥2.0-fold increase, more preferably in ≥2.5-fold increase and most preferably in ≥3.0-fold increase of the Luciferase-driven reporter signal in the frame of the named Notch-dependent luciferase reporter assay.\nFIG. 1. […] The indicated compounds were tested at 10 μM concentration in a Notch-driven luciferase reporter assay. HeLa cells had been engineered to express the Notch1 full-length receptor, the firefly luciferase (expression dependent on Notch signaling) and the renilla luciferase (expression independent on Notch signaling). Cells were co-cultured in a 96 well-plate with DLL4 ligand expressing HeLa cells to induce Notch signaling and simultaneously treated with DMSO or indicated compounds for 20 h. Notch signaling activation was then quantified by measuring luciferase-dependent luminescence intensities upon treatment with appropriate substrates. The firefly values were normalized against the renilla values to obtain the relative luminescence intensities (represented by the bars).\n(§1) A brief description of the assay is given in the description of FIG. 1. If not stated differently, all assays were performed using a Notch1 full-length receptor driven reporter system. Values are normalized against DMSO. a) V126 (black rhombi) was tested at the indicated concentrations. […] The control readouts for DMSO (black), CB103 (white), V126 at 10 μM and V126 at 1 μM (diagonal lines) were taken as usual after incubation for 20 h. c) V126 was tested in combination with an equimolar amount of the y-secretase inhibitor DAPT or the Notch inhibitor CB103 at 10 μM concentration each. d) V126 and the indicated compounds were tested at 10 μM in a luciferase reporter assay driven by the Notch2 receptor isoform. e) V126 and the indicated compounds were tested at 10 μM in a luciferase assay driven by the constitutively active form of the Notch1 receptor (N1ICD, Notch1 intracellular domain)."}, "[2]": {"tested_on": "N1ICD, Notch1 intracellular domain", "test": "Luciferase assay driven by the constitutively active form of the Notch1 receptor (N1ICD)", "assay_type": "cell-based", "settings": "10 μM, FIG. 2e", "procedure": "as §1\n(§2) To rule out that V126 is directly enhancing the activity of the luciferase enzyme, the Notch reporter assay was challenged by applying V126 treatment immediately prior to the readout. […] Moreover, the Notch-enhancing activity of V126 could be partially and completely rescued by combinational equimolar treatment with the γ-secretase inhibitor DAPT or the Notch inhibitor CB103, respectively, further confirming the ability of V126 to upregulate Notch signaling (FIG. 2c)."}, "luciferase enzyme": {"target": "T1, luciferase enzyme (Photinus pyralis, UniProt P08659)", "T1 construct": "expressed in transfected cells; host or cells: HeLa cells engineered with Notch1 full-length receptor, firefly and Renilla luciferase constructs, co-cultured with DLL4-expressing HeLa cells", "T1 sequence (P08659 whole entry)": "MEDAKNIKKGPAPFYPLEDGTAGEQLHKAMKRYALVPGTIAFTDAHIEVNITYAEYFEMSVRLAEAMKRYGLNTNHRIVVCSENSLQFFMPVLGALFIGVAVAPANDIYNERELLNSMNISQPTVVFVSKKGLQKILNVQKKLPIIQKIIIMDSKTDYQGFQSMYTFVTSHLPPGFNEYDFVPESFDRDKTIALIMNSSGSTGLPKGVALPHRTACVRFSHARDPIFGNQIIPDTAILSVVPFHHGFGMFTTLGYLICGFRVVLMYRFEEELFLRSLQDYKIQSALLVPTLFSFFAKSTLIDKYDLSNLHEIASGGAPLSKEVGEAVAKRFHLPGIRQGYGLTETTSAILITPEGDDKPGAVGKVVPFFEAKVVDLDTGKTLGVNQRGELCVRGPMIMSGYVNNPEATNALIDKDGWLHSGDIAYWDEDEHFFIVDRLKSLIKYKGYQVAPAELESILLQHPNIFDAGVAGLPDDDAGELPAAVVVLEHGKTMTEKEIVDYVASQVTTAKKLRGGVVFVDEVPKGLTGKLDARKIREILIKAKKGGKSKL", "test": "Direct influence on luciferase enzyme activity (treatment 5 min prior to readout of the Notch reporter assay)", "assay_type": "cell-based", "settings": "10 μM and 1 μM, 5 min prior to the readout, FIG. 2b", "procedure": "as §1, §2"}, "SCC13 cells": {"tested_on": "SCC13 cells", "test": "Involucrin protein expression in SCC13 cells (Western Blot)", "assay_type": "cell-based, human", "settings": "10 μM, 48 h, β-actin as loading control", "procedure": "Cells were treated with DMSO or V126 at a concentration of 10 μM for 48 h. Total cell lysates were applied on Western Blot analysis using β-actin as loading control.\nNotch activation in the skin is known to drive differentiation of keratinocytes resulting in the induction of differentiation markers such as involucrin (C. Nowell, Cold Spring Harb Perspect Med. 2013, 3, 12), (G. P. Dotto, Oncogene 2008, 27, 5115-5123). […] In the spleen, marginal zone B-cells (MZBs) and follicular B-cells (FoBs) are the two main types of mature B-cells, both of which develop from the same precursor cells, namely the transitional B-cells (TBs). Notch2 signaling was reported to play a crucial role in the development of MZBs (S. Pillai, Nat. Rev. Immunol. 2009, 9, 767-777) and increased Notch2 signaling in the spleen leads to an expansion of the MZB compartment (F. Hampel, Blood 2011, 118, 24, 6321-6331). In contrast, the development of FoBs is not dependent on Notch signaling. To evaluate the effect of V126 in vivo, C57BL/6N mice were injected intraperitoneally with 25 mg/kg V126 once a day for one week. The impact of V126 on the different B-cell compartments in these mice was analyzed by flow cytometry on splenocytes, showing that V126 was capable to double the number of MZBs as compared to the control, whereas the FoB numbers were not affected (FIG. 4)."}, "[3]": {"tested_on": "Notch2 full-length receptor", "test": "Luciferase reporter assay driven by the Notch2 receptor isoform (N2FL)", "assay_type": "cell-based", "settings": "10 μM, FIG. 2d", "procedure": "as §1, §2"}, "[4]": {"tested_on": "splenic marginal zone B-cells (MZB)", "test": "Splenic B-cell compartments in mice by flow cytometry", "assay_type": "in vivo, C57BL/6N mice", "settings": "25 mg/kg intraperitoneal once a day for one week", "procedure": "C57BL/6N mice were treated with 25 mg/kg V126 by intraperitoneal injection once a day for one week. a) Spleen cells were analyzed by flow cytometry. Shown are two representative plots of control (Ctrl., n=5) and V126 (n=4) treatments displaying the B220+cell (total B-cell) population. The gates encircle the respective MZB, FoB, and TB fractions with the corresponding numbers indicating the relative proportions (in percentage) of cells out of the B220+population. b) The bar diagrams quantify the relative MZB percentages from a) (left), and the recalculated total numbers of splenic MZBs (right). FoBs: Follicular B-cells, TBs: Transitional B-cells, see text.\nNotch activation in the skin is known to drive differentiation of keratinocytes resulting in the induction of differentiation markers such as involucrin (C. Nowell, Cold Spring Harb Perspect Med. 2013, 3, 12), (G. P. Dotto, Oncogene 2008, 27, 5115-5123). […] In the spleen, marginal zone B-cells (MZBs) and follicular B-cells (FoBs) are the two main types of mature B-cells, both of which develop from the same precursor cells, namely the transitional B-cells (TBs). […] The impact of V126 on the different B-cell compartments in these mice was analyzed by flow cytometry on splenocytes, showing that V126 was capable to double the number of MZBs as compared to the control, whereas the FoB numbers were not affected (FIG. 4)."}}, "note": "Entries after “also recorded” stand apart in the source; their conditions may differ.", "data": [{"smiles": "CC(C)(C)c1ccc(Oc2ccc(C(=O)O)cc2)cc1", "note": "[V126, 4-(4-(tert-Butyl)phenoxy)benzoic acid]", "values": [{"measurement": "IFNγ production and secretion", "setting": "CD4 T cells", "result": "increased"}, {"measurement": "luciferase values after treatment for 20 h in the very same readout", "setting": "[1]; 10 μM and 1 μM, 20 h, FIG. 2b", "result": "expected upregulation"}, {"measurement": "rescue of the Notch-enhancing activity by combinational equimolar treatment with CB103", "setting": "[1]; V126 plus Notch inhibitor CB103, 10 μM each, FIG. 2c", "result": "completely"}, {"measurement": "rescue of the Notch-enhancing activity by combinational equimolar treatment with DAPT", "setting": "[1]; V126 plus γ-secretase inhibitor DAPT, 10 μM each, FIG. 2c", "result": "partially"}, {"measurement": "enhancement of Notch signaling", "setting": "[1]; concentration of 1↔M, FIG. 2a", "result": "strongly enhanced Notch signaling"}, {"measurement": "enhancement of N1ICD driven signaling", "setting": "[2]", "result": "enhance the signaling cascade taking place downstream of ligand-mediated activation of Notch signaling"}, {"measurement": "luciferase values after short-term treatment immediately prior to the readout", "setting": "luciferase enzyme", "result": "in the range of the DMSO control level"}, {"measurement": "expression of the differentiation marker involucrin at the protein level", "setting": "SCC13 cells", "result": "increased protein expression"}, {"measurement": "enhancement of Notch2 receptor driven signaling", "setting": "[3]", "result": "enhance signaling derived from different Notch receptor isoforms"}, {"measurement": "FoB (follicular B-cell) numbers", "setting": "[4]", "result": "not affected"}, {"measurement": "number of splenic MZBs compared to the control", "setting": "[4]", "result": "increase; also recorded: double"}]}, {"smiles": "CC(C)(C)c1ccc(Oc2ccc(N)cn2)cc1", "note": "[CB103, reference compound]", "values": [{"measurement": "Notch signaling relative to the DMSO control", "setting": "[1]; 20 h", "result": "decrease in Notch signaling"}]}, {"smiles": "C[C@H](NC(=O)Cc1cc(F)cc(F)c1)C(=O)N[C@H](C(=O)OC(C)(C)C)c1ccccc1", "note": "[DAPT, reference compound]", "values": [{"measurement": "Notch signaling relative to the DMSO control", "setting": "[1]; 20 h", "result": "decrease in Notch signaling"}]}, {"smiles": "CCCC(CCC)C(=O)O", "note": "[valproic acid, reference compound]", "values": [{"measurement": "effect on Notch signaling", "setting": "[1]; concentrations up to 40 μM, FIG. 2a", "result": "did not show any effect"}]}]}
